Results as given in US10512265B2, “Pesticidally active heterocyclic derivatives with sulphur containing substituents” (Syngenta Participations AG, priority 2015, dated 2019).

Key:
[1] = tested on: Spodoptera littoralis (Egyptian cotton leaf worm); test: Example B1: activity against Spodoptera littoralis, sprayed cotton leaf discs; format: in vivo; conditions: foliar, 72 h, application rate 200 ppm, L1 larvae, 3 days after infestation, read-out: control of Spodoptera littoralis (at least one of mortality, anti-feedant effect, growth inhibition)
Protocol: Example B1: Activity Against Spodoptera littoralis (Egyptian Cotton Leaf Worm)
Cotton leaf discs were placed on agar in 24-well microtiter plates and sprayed with aqueous test solutions prepared from 10′000 ppm DMSO stock solutions. After drying the leaf discs were infested with five L1 larvae. The samples were assessed for mortality, anti-feedant effect, and growth inhibition in comparison to untreated samples 3 days after infestation. Control of Spodoptera littoralis by a test sample is when at least one of mortality, anti-feedant effect, and growth inhibition is higher than the untreated sample.

[2] = tested on: Spodoptera littoralis (Egyptian cotton leaf worm); test: Example B2: activity against Spodoptera littoralis, systemic via lettuce grown on treated agar; format: in vivo; conditions: 144 h, test rate 12.5 ppm, in agar, uptake by lettuce roots, Spodoptera eggs, 6 days after infestation, read-out: effect in at least one of the three categories (mortality, anti-feedancy, or growth inhibition)
Source text: Example B2: Activity Against Spodoptera littoralis (Egyptian Cotton Leaf Worm)
Test compounds were applied by pipette from 10′000 ppm DMSO stock solutions into 24-well plates and mixed with agar. Lettuce seeds were placed on the agar and the multi well plate was closed by another plate which contains also agar. After 7 days the roots have absorbed the compound and the lettuce has grown into the lid plate. The lettuce leafs were now cut off into the lid plate. Spodoptera eggs were pipetted through a plastic stencil on a humid gel blotting paper and the plate closed with it.
The samples were assessed for mortality, anti-feedant effect and growth inhibition in comparison to untreated samples 6 days after infestation.

[3] = tested on: Plutella xylostella (diamond back moth); test: Example B3: activity against Plutella xylostella, treated artificial diet; format: in vivo; conditions: 120 h, application rate 200 ppm, L2 larvae, 5 days after infestation, read-out: effect in at least one of the two categories (mortality or growth inhibition)
Protocol: Example B3: Activity Against Plutella xylostella (Diamond Back Moth)
(§1) 24-well microtiter plates with artificial diet were treated with aqueous test solutions prepared from 10′000 ppm DMSO stock solutions by pipetting. After drying, the plates were infested with L2 larvae (10 to 15 per well). The samples were assessed for mortality and growth inhibition in comparison to untreated samples 5 days after infestation.

[4] = tested on: Diabrotica balteata (corn root worm); test: Example B4: activity against Diabrotica balteata, sprayed maize sprouts; format: in vivo; conditions: 96 h, application rate 200 ppm, L2 larvae, 4 days after infestation, read-out: effect in at least one of the two categories (mortality or growth inhibition)
Protocol: Example B4: Activity Against Diabrotica Balteata (Corn Root Worm)
as §1, with “Maize sprouts, placed on an agar layer in 24-well” for “24-well”, “plates” for “plates with artificial diet”, “spraying.” for “pipetting.”, “(6” for “(10”, “10” for “15”, “4” for “5”

[5] = tested on: Myzus persicae (green peach aphid); test: Example B5: activity against Myzus persicae, sprayed sunflower leaf discs; format: in vivo; conditions: foliar, 144 h, application rate 200 ppm, aphid population of mixed ages, 6 days after infestation
Protocol: Example B5: Activity Against Myzus persicae (Green Peach Aphid)
(§2) Sunflower leaf discs were placed on agar in a 24-well microtiter plate and sprayed with aqueous test solutions prepared from 10′000 ppm DMSO stock solutions. After drying, the leaf discs were infested with an aphid population of mixed ages. The samples were assessed for mortality 6 days after infestation.

[6] = tested on: Frankliniella occidentalis (western flower thrips); test: Example B7: activity against Frankliniella occidentalis, sprayed sunflower leaf discs; format: in vivo; conditions: foliar, 168 h, application rate 200 ppm, population of mixed ages, 7 days after infestation
Protocol: Example B7: Activity Against Frankliniella occidentalis (Western Flower Thrips)
as §2, with “in” for “in a”, “plates” for “plate”, “[…]” for “10′000 ppm”, “drying” for “drying,”, “a Frankliniella” for “an aphid”, “7” for “6”

[7] = tested on: Aedes aegypti (yellow fever mosquito); test: Example B11: activity against Aedes aegypti, dry deposits in tissue culture plates; format: in vivo; conditions: 200 ppm in ethanol, dry deposit, adult females, after 48 h and/or 24 h
Protocol: Example B11: Activity Against Aedes Aegypti (Yellow Fever Mosquito)
Test solutions, at an application rate of 200 ppm in ethanol, were applied to 12-well tissue culture plates. Once the deposits were dry, five, two to five days old adult female Aedes aegypti were added to each well, and sustained with a 10% sucrose solution in a cotton wool plug. Assessment of knockdown was made one hour after introduction, and mortality was assessed at 24 and 48 hours after introduction.

[8] = tested on: Bemisia tabaci (cotton white fly); test: Example B8: activity against Bemisia tabaci, sprayed cotton leaf discs; format: in vivo; conditions: foliar, 144 h, application rate 200 ppm, adult white flies, 6 days after incubation
Protocol: Example B8: Activity Against Bemisia tabaci (Cotton White Fly)
Cotton leaf discs were placed on agar in 24-well microtiter plates and sprayed with aqueous test solutions prepared from 10′000 ppm DMSO stock solutions. After drying the leaf discs were infested with adult white flies. The samples were checked for mortality 6 days after incubation.

[9] = tested on: Myzus persicae (green peach aphid); test: Example B6: activity against Myzus persicae, roots of pea seedlings in test solution; format: in vivo; conditions: 144 h, test rate 24 ppm, roots of infested pea seedlings in test solution, 6 days
Protocol: Example B6: Activity Against Myzus persicae (Green Peach Aphid)
Roots of pea seedlings infested with an aphid population of mixed ages were placed directly in the aqueous test solutions prepared from 10′000 DMSO stock solutions. The samples were assessed for mortality 6 days after placing seedlings in test solutions.

[10] = tested on: Euschistus heros (neotropical brown stink bug); test: Example B9: activity against Euschistus heros, sprayed soybean leaf; format: in vivo; conditions: 120 h, application rate 200 ppm, N-2 nymphs, 5 days after infestation, read-out: effect in at least one of the two categories (mortality or growth inhibition)
Protocol: Example B9: Activity Against Euschistus heros(Neotropical Brown Stink Bug)
Soybean leaf on agar in 24-well microtiter plates were sprayed with aqueous test solutions prepared from 10′000 ppm DMSO stock solutions. After drying the leaf were infested with N-2 nymphs. The samples were assessed for mortality and growth inhibition in comparison to untreated samples 5 days after infestation.

[11] = tested on: Tetranychus urticae (two-spotted spider mite); test: Example B10: activity against Tetranychus urticae, sprayed bean leaf discs; format: in vivo; conditions: foliar, 192 h, application rate 200 ppm, mixed population (mobile stages), 8 days after infestation
Protocol: Example B10: Activity Against Tetranychus urticae (Two-Spotted Spider Mite)
Bean leaf discs on agar in 24-well microtiter plates were sprayed with aqueous test solutions prepared from 10′000 ppm DMSO stock solutions. After drying the leaf discs were infested with a mite population of mixed ages. The samples were assessed for mortality on mixed population (mobile stages) 8 days after infestation.

melting point | SMILES | mortality at 200 ppm [1] | percent control (mortality, anti-feedancy or growth inhibition) at 12.5 ppm [2] | percent effect (mortality or growth inhibition) at 200 ppm [3] | percent effect (mortality or growth inhibition) at 200 ppm [4] | mortality at 200 ppm [5] | mortality at 200 ppm [6] | pest or weed control at 200 ppm [7] | mortality at 200 ppm [8] | mortality at 24 ppm [9] | percent effect (mortality or growth inhibition) at 200 ppm [10] | mortality at 200 ppm [11]
224 to 226 °C | CCS(=O)(=O)c1cc(-c2ncc(Cl)cn2)cnc1-c1ncc(-c2cnc(C(F)(F)F)nc2)n1C [Compound P14] |  |  |  |  |  |  |  |  |  |  | 
231 to 233 °C | CCS(=O)(=O)c1cc(-c2ncccn2)cnc1-c1ncc(-c2cnc(C(F)(F)F)nc2)n1C [Compound P15] |  |  |  |  |  |  |  |  |  |  | 
170 to 172 °C | CCS(=O)(=O)c1cc(-c2cccc(F)c2)cnc1-c1ncc(-c2ccc(C(F)(F)F)nc2)n1C [Compound P16] |  |  |  |  |  |  |  |  |  |  | 
 | CCS(=O)(=O)c1cc(-c2ccccc2)cnc1-c1ncc(-c2ccc(C(F)(F)F)nc2)n1C [Compound P6] | ≥ 80% | ≥ 80% | ≥ 80% | ≥ 80% | ≥ 80% | ≥ 80% |  |  |  |  | 
 | CCS(=O)(=O)c1cc(-c2ccc(Cl)cc2)cnc1-c1ncc(-c2ccc(C(F)(F)F)cc2)n1C [Compound P12] | ≥ 80% |  | ≥ 80% | ≥ 80% |  | ≥ 80% | ≥ 80% |  |  |  | 
 | CCS(=O)(=O)c1cc(-c2ccc(C(F)(F)F)cc2)cnc1-c1ncc(-c2ccc(C(F)(F)F)cc2)n1C [Compound P2, 3-ethylsulfonyl-2-[1-methyl-5-[4-(trifluoromethyl)phenyl]imidazol-2-yl]-5-[4-(trifluoromethyl)phenyl]pyridine] | ≥ 80% |  | ≥ 80% | ≥ 80% |  | ≥ 80% | ≥ 80% |  |  |  | 
 | CCS(=O)(=O)c1cc(-c2ccc(F)cc2)cnc1-c1ncc(-c2ccc(F)cc2)n1C [Compound P4] | ≥ 80% | ≥ 80% | ≥ 80% | ≥ 80% | ≥ 80% |  |  | ≥ 80% |  |  | 
 | CCS(=O)(=O)c1cc(-c2ncccn2)cnc1-c1ncc(-c2ccc(C(F)(F)F)nc2)n1C [Compound P8] | ≥ 80% | ≥ 80% | ≥ 80% | ≥ 80% | ≥ 80% | ≥ 80% |  |  | ≥ 80% | ≥ 80% | 
 | CCS(=O)(=O)c1cc(-c2ncccn2)cnc1-c1ncc(-c2cncc(C(F)(F)F)c2)n1C [Compound P10] | ≥ 80% | ≥ 80% | ≥ 80% | ≥ 80% | ≥ 80% | ≥ 80% |  |  | ≥ 80% | ≥ 80% | 
 | CCS(=O)(=O)c1cc(-c2ccc(Cl)cc2)cnc1-c1ncc(-c2cccc(SC(F)(F)F)c2)n1C [Compound P13] | ≥ 80% |  | ≥ 80% | ≥ 80% |  |  |  |  |  |  | 
155 to 157 °C | CCS(=O)(=O)c1cc(-c2cccc(F)c2)cnc1-c1ncc(-c2cncc(C(F)(F)F)c2)n1C [Compound P18] |  |  |  |  |  |  |  |  |  |  | 
 | CCS(=O)(=O)c1cc(-c2ncc(Cl)cn2)cnc1-c1ncc(-c2ccc(C(F)(F)F)nc2)n1C [Compound P11] | ≥ 80% | ≥ 80% | ≥ 80% | ≥ 80% | ≥ 80% |  | ≥ 80% |  |  | ≥ 80% | 
 | CCS(=O)(=O)c1cc(-c2ccc(C(F)(F)F)cc2)cnc1-c1ncc(-c2ccc(C(F)(F)F)nc2)n1C [Compound P1, 3-ethylsulfonyl-2-[1-methyl-5-[6-(trifluoromethyl)-3-pyridyl]imidazol-2-yl]-5-[4-(trifluoromethyl)phenyl]pyridine] | ≥ 80% |  | ≥ 80% | ≥ 80% |  | ≥ 80% | ≥ 80% |  |  | ≥ 80% | 
 | CCS(=O)(=O)c1cc(-c2ccc(Cl)cc2)cnc1-c1ncc(-c2ccc(SC(F)(F)F)cc2)n1C [Compound P7] | ≥ 80% |  | ≥ 80% | ≥ 80% |  |  | ≥ 80% |  |  |  | 
 | CCS(=O)(=O)c1cc(-c2ccc(Cl)cc2)cnc1-c1ncc(-c2ccc(S(=O)(=O)C(F)(F)F)cc2)n1C [Compound P9] | ≥ 80% |  | ≥ 80% | ≥ 80% |  |  | ≥ 80% |  |  |  | 
 | CCS(=O)(=O)c1cc(-c2ccc(Cl)cc2)cnc1-c1ncc(-c2ccc(C(F)(F)F)nc2)n1C [Compound P5] | ≥ 80% |  | ≥ 80% | ≥ 80% | ≥ 80% | ≥ 80% | ≥ 80% |  |  | ≥ 80% | 
 | CCS(=O)(=O)c1cc(-c2ccc(F)cc2)cnc1-c1ncc(-c2ccc(C(F)(F)F)nc2)n1C [Compound P3, 3-ethylsulfonyl-5-(4-fluorophenyl)-2-[1-methyl-5-[6-(trifluoromethyl)-3-pyridyl]imidazol-2-yl]pyridine] | ≥ 80% | ≥ 80% | ≥ 80% | ≥ 80% | ≥ 80% | ≥ 80% | ≥ 80% |  |  |  | ≥ 80%
193 to 195 °C | CCS(=O)(=O)c1cc(-c2cccc(F)c2)cnc1-c1ncc(-c2cnc(C(F)(F)F)nc2)n1C [Compound P17] |  |  |  |  |  |  |  |  |  |  | 
